From patent US8624034B2, “Fluoro-pyridinone derivatives useful as antibacterial agents” (Pfizer Inc., priority 2011, dated 2014)
Values after ≈ are worked out from the molar mass of the structure shown.

Key:
[1] = molecular target: T1, Pseudomonas aeruginosa LpxC enzyme (Pseudomonas aeruginosa, UniProt P47205); test: IC50 assay, LpxC enzyme from P. aeruginosa (PA LpxC enzyme IC50); assay type: biochemical; settings: Table 2; LpxC enzyme 0.1 nM, 25° C., 1 hour; read-out: PA:IC50
T1 construct: made in house; host or cells: E. coli
T1 sequence (P47205 1-303): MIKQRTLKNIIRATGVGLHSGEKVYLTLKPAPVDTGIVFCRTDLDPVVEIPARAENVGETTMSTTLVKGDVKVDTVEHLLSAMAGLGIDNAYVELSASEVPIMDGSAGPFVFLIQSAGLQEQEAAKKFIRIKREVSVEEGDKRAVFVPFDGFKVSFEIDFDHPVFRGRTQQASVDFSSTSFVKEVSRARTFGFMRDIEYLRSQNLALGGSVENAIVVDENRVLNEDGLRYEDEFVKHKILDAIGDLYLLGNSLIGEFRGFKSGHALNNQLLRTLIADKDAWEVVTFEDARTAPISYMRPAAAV
How it was run: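 IC50 values came from percent conversion, referenced to a no-enzyme control. Conversion was read by RapidFire HTMS mass spectrometry after HCl quench of the 1 h enzyme reaction.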

[2] = tested on: Escherichia coli EC-1: VOGEL, mouse virulent; test: MIC determination, EC-1; assay type: cell-based; settings: Escherichia coli, read-out: EC-1 (MIC), Table 2, lower of duplicate values
How it was run: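 Duplicate runs differing by more than 2-fold were repeated, and otherwise the lower MIC was kept. The test organism was E. coli EC-1 (VOGEL, mouse virulent), incubated overnight across 2-fold compound dilutions following CLSI guidelines. The MIC was read visually as the lowest concentration inhibiting growth relative to drug-free control.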

[3] = tested on: Acinetobacter baumannii/haemolyticus, multidrug-resistant clinical isolate (AB-3167); test: MIC determination, AB-3167; assay type: cell-based; settings: Table 2, lower of duplicate values
How it was run: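 MIC read visually after overnight growth across 2-fold concentration steps in the CLSI dilution method against the multidrug-resistant clinical isolate. Duplicate determinations, lower value reported when within 2-fold, otherwise repeated; every run checked with control organisms and reference drugs.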

[4] = tested on: Pseudomonas aeruginosa UI-18: wild-type (PA-7); test: MIC determination, PA-7; assay type: cell-based; settings: Table 2, lower of duplicate values
Protocol: The in vitro antibacterial activity of compounds described in the Examples was evaluated by minimum inhibitory concentration (MIC) testing according to Clinical and Laboratory Standards Institute (CLSI). See: Clinical and Laboratory Standards Institute. Methods for Dilution Antimicrobial Susceptibility Tests for Bacteria that Grow Aerobically; Approved Standard-Eighth Edition. CLSI document M7-A8 [ISBN 1-56238-689-1]. Clinical and Laboratory Standards Institute, 940 West Valley Road, Suite 1400, Wayne, Pa. 19087-1898 USA, 2006; also Clinical and Laboratory Standards Institute. Performance Standards for Antimicrobial Susceptibility Testing; Twentieth Informational Supplement. CLSI document M100-S20 [ISBN 1-56238-716-2]. Clinical and Laboratory Standards Institute.
The MIC determination is a standard laboratory method for evaluating the antibacterial activity of a compound. The MIC represents the lowest drug concentration that inhibits visible growth of bacteria following overnight incubation. […] Typically, the drug concentration range is broken down into 2-fold increments (e.g. 0.06 μg/mL, 0.12 μg/mL. 0.25 μg/mL, 0.50 μg/mL, 1.0 μg/mL, etc.) and the various drug concentrations are all individually incubated overnight with approximately the same number of bacteria. The MIC is then determined by visually inspecting the drug effect at each concentration, and identifying the lowest drug concentration that has inhibited bacterial growth as compared to the drug free control. Typically, bacteria continue to grow at drug concentrations lower than the MIC and don't grow at concentrations at and above the MIC.
The MIC values described in Table 2 and 3 below were derived from assays wherein each test compound was evaluated in duplicate. In cases where the duplicate values varied by 0-2-fold, the lower of the two values was reported below. Generally speaking, if the duplicate values varied by more than 2-fold, the assay was considered non-valid and was repeated until the variation between duplicate runs was ≦2-fold. In line with the CLSI guidelines referred to above, both control organisms and reference compounds were utilized in each MIC assay to provide proper quality control. MIC values generated with these control organisms and reference compounds were required to fall within a defined range for the assay to be considered valid and be included herein. Those skilled in the art will recognize that MIC values can and do vary from experiment to experiment. Generally speaking, it should be recognized that MIC values often vary +/−2-fold from experiment to experiment. While a single MIC is reported for each compound and each microorganism, the reader should not conclude that each compound was only tested once. Several of the compounds were subjected to multiple tests. The data reported in Tables 2 and 3 is reflective of the compounds relative activity and different MICs may have been generated on these occasions in line with the guidelines described above.
The following bacterial strains were used in these MIC determinations:
1) Pseudomonas aeruginosa UI-18: Wild-type, labeled as PA-7 in Tables 2 and 3;

| Compound | IC50 [1] | MIC [2] | MIC [3] | MIC [4] |
| --- | --- | --- | --- | --- |
| C[C@@](CCn1cc(F)c(-c2ccc(OC(F)F)c(F)c2)cc1=O)(C(=O)NO)S(C)(=O)=O [Example 35, (2R)-4-{4-[4-(difluoromethoxy)-3-fluorophenyl]-5-fluoro-2-oxopyridin-1(2H)-yl}-N-hydroxy-2-methyl-2-(methylsulfonyl)butanamide] | 0.589 nM | 1 mg/L (≈ 2.14 µM) | > 64 mg/L | 0.5 mg/L (≈ 1.07 µM) |
| C[C@@](CCn1cc(F)c(-c2ccc(-n3nccn3)c(F)c2)cc1=O)(C(=O)NO)S(C)(=O)=O [Example 36, (2R)-4-{5-Fluoro-4-[3-fluoro-4-(2H-1,2,3-triazol-2-yl)phenyl]-2-oxopyridin-1(2H)-yl}-N-hydroxy-2-methyl-2-(methylsulfonyl)butanamide] | 0.398 nM | 0.5 mg/L (≈ 1.07 µM) | > 64 mg/L | 1 mg/L (≈ 2.14 µM) |
| C[C@@](CCn1cc(F)c(-c2ccccc2)c(F)c1=O)(C(=O)NO)S(C)(=O)=O [Example 38, (2R)-4-(3,5-Difluoro-2-oxo-4-phenylpyridin-1(2H)-yl)-N-hydroxy-2-methyl-2-(methylsulfonyl)butanamide] | 0.55 nM | 1 mg/L (≈ 2.5 µM) | > 64 mg/L | 0.5 mg/L (≈ 1.25 µM) |
| COc1c(-c2ccccc2)c(F)cn(CC[C@](C)(C(=O)NO)S(C)(=O)=O)c1=O [Example 39, (2R)-4-(5-Fluoro-3-methoxy-2-oxo-4-phenylpyridin-1(2H)-yl)-N-hydroxy-2-methyl-2-(methylsulfonyl)butanamide] | 8.07 nM | 4 mg/L (≈ 9.7 µM) | 64 mg/L (≈ 155 µM) | 8 mg/L (≈ 19.4 µM) |
| C[C@@](CCn1cc(F)c(-c2ccccc2)c(O)c1=O)(C(=O)NO)S(C)(=O)=O [Example 40, (2R)-4-(5-Fluoro-3-hydroxy-2-oxo-4-phenylpyridin-1(2H)-yl)-N-hydroxy-2-methyl-2-(methylsulfonyl)butanamide] | > 100 nM | 16 mg/L (≈ 40.2 µM) | 64 mg/L (≈ 161 µM) | 16 mg/L (≈ 40.2 µM) |
| C[C@@](CCn1cc(F)c(-c2ccc(-c3ccon3)cc2)cc1=O)(C(=O)NO)S(C)(=O)=O [Example 41, (2R)-4-[5-Fluoro-4-(4-isoxazol-3-ylphenyl)-2-oxopyridin-1(2H)-yl]-N-hydroxy-2-methyl-2-(methylsulfonyl)butanamide] | 0.237 nM | 0.5 mg/L (≈ 1.11 µM) | 16 mg/L (≈ 35.6 µM) | 0.5 mg/L (≈ 1.11 µM) |
| C[C@@](CCn1cc(F)c(-c2ccc(-c3ncco3)cc2)cc1=O)(C(=O)NO)S(C)(=O)=O [Example 42, (2R)-4-[5-Fluoro-4-[4-(1,3-oxazol-2-yl)phenyl]-2-oxopyridin-1(2H)-yl]-N-hydroxy-2-methyl-2-(methylsulfonyl)butanamide] | 0.328 nM | 0.25 mg/L (≈ 0.556 µM) | > 64 mg/L | 1 mg/L (≈ 2.22 µM) |
| [2H]C([2H])([2H])c1ccc(-c2cc(=O)n(CC[C@](C)(C(=O)NO)S(C)(=O)=O)cc2F)cc1 [Example 43, (2R)-4-[5-Fluoro-4-(4-trideuteromethylphenyl)-2-oxopyridin-1(2H)-yl]-N-hydroxy-2-methyl-2-(methylsulfonyl)butanamide] | 0.653 nM | 0.25 mg/L (≈ 0.626 µM) | > 64 mg/L | 0.5 mg/L (≈ 1.25 µM) |
| [2H]C([2H])([2H])Oc1ccc(-c2cc(=O)n(CC[C@](C)(C(=O)NO)S(C)(=O)=O)cc2F)cc1 [Example 44, (2R)-4-[5-Fluoro-4-(4-trideuteromethoxyphenyl)-2-oxopyridin-1(2H)-yl]-N-hydroxy-2-methyl-2-(methylsulfonyl)butanamide] | 0.664 nM | 0.25 mg/L (≈ 0.602 µM) | > 64 mg/L | 0.25 mg/L (≈ 0.602 µM) |
| [2H]C([2H])([2H])C([2H])([2H])Oc1ccc(-c2cc(=O)n(CC[C@](C)(C(=O)NO)S(C)(=O)=O)cc2F)cc1 [Example 45, (2R)-4-[4-(4-Pentadeuteroethoxyphenyl)-5-fluoro-2-oxopyridin-1(2H)-yl]-N-hydroxy-2-methyl-2-(methylsulfonyl)butanamide] | 0.547 nM | 0.125 mg/L (≈ 0.29 µM) | > 64 mg/L | 0.5 mg/L (≈ 1.16 µM) |
